Columns and labels:
[1] = molecular target: human recombinant Aurora A (Homo sapiens (Human), UniProt O14965); assay: Aurora A Kinase Biochemical Assay (ADP-Glo); conditions: ratio of Aurora A IC50 to PLK4 IC50 (selectivity)
human recombinant PLK4 = human recombinant PLK4 (Homo sapiens (Human), UniProt O00444); assay: PLK4 Biochemical Assay (ADP-Glo); conditions: 0.5 nM PLK4, 8.0 µM ATP, 4.7 µM MBP, 6 hours at RT
How it was run: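 Recombinant human PLK4 (added at 1.0 nM) was preincubated 15 min at RT with compound in 50 mM HEPES pH 7.5, 10 mM MgCl2, 1 mM EGTA, 1 mM DTT, 0.01% Brij-35, 0.01% BSA. ADP formed was detected by ADP-Glo luminescence (40 min ATP depletion, 30 min detection). IC50 came from a four-parameter fit.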

[2] = molecular target: human recombinant Aurora B (Homo sapiens (Human), UniProt Q96GD4); assay: Aurora B Kinase Biochemical Assay (ADP-Glo); conditions: ratio of Aurora B IC50 to PLK4 IC50 (selectivity)
How it was run: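 Recombinant human Aurora B (20 nM in pH 7.5 HEPES buffer with MgCl2, EGTA, DTT, Brij-35, BSA) preincubated with compound 15 min at RT. ADP formed quantified by ADP-Glo luminescence after ATP depletion (40 min) and detection (30 min). IC50 from four-parameter non-linear regression.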

human recombinant Aurora B, sequence (Q96GD4 whole entry): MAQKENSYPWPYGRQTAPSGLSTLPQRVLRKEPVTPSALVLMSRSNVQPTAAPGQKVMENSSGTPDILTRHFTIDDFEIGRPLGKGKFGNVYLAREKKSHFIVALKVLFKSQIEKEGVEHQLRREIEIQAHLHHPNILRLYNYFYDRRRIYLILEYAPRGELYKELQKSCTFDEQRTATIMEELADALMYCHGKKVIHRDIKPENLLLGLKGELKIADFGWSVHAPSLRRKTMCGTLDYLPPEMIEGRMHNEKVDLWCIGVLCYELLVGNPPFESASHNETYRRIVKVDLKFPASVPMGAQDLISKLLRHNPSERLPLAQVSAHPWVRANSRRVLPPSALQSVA
human recombinant Aurora A, sequence (O14965 whole entry): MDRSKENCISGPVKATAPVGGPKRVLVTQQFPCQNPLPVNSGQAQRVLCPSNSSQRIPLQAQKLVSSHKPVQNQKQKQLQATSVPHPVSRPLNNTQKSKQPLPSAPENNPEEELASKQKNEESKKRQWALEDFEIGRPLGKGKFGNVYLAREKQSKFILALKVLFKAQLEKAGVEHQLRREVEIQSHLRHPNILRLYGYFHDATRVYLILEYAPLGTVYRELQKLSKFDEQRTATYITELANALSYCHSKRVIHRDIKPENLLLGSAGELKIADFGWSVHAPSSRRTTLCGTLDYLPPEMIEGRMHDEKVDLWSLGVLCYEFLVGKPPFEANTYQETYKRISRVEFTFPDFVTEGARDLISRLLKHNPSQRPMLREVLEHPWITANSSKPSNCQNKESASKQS
human recombinant PLK4, sequence (O00444 whole entry): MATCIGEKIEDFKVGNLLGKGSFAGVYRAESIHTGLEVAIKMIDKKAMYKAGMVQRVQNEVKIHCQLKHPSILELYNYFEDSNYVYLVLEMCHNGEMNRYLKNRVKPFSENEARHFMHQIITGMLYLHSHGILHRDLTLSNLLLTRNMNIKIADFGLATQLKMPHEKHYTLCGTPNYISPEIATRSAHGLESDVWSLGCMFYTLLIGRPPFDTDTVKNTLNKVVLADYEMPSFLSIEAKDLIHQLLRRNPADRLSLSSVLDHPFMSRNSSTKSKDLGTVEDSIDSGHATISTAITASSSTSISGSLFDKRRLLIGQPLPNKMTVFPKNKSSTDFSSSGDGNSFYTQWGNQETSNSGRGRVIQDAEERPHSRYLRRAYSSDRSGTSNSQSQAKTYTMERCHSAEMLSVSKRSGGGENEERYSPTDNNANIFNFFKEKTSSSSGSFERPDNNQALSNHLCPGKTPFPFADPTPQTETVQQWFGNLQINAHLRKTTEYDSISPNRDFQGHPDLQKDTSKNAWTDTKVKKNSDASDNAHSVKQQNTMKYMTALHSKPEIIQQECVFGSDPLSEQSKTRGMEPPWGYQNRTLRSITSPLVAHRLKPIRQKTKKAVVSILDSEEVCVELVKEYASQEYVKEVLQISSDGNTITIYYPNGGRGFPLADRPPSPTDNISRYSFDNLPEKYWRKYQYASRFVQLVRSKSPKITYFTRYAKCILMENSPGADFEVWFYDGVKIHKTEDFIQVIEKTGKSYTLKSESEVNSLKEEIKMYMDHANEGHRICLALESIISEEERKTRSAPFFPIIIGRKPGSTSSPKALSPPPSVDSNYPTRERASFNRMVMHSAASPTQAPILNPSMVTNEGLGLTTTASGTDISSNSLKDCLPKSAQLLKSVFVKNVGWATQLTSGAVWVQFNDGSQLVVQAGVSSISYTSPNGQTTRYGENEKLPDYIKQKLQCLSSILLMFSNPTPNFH

Row | [Aurora A IC50 (nM)]/[PLK4 IC50 (nM)] [1] | IC50 (human recombinant PLK4) [nM] | [Aurora B IC50 (nM)]/[PLK4 IC50 (nM)] [2] | Compound
1 | 819.6509 | 6.19 | 110.6011 | COc1ccc2c(c1)[C@]1(C[C@H]1c1ccc3c(Nc4ccc(C(=O)NC(CF)CF)nc4OC)n[nH]c3c1)C(=O)N2 [Example 250, N-(1,3-difluoropropan-2-yl)-6-methoxy-5-({6-[(1R,2S)-5′-methoxy-2′-oxo-1′,2′-dihydrospiro[cyclopropane-1,3′-indol]-2-yl]-1H-indazol-3-yl}amino)pyridine-2-carboxamide]
2 | 709.6288 | 5.98 | 88.7161 | COc1ccc2c(c1)[C@]1(C[C@H]1c1ccc3c(Nc4cnc(C(=O)N(C)C)cc4OC)n[nH]c3c1)C(=O)N2 [Example 253, 4-methoxy-5-({6-[(1R,2S)-5′-methoxy-2′-oxo-1′,2′-dihydrospiro[cyclopropane-1,3′-indol]-2-yl]-1H-indazol-3-yl}amino)-N,N-dimethylpyridine-2-carboxamide]
3 | 1330.5457 | 9.33 | 294.8429 | COc1ccc2c(c1)[C@]1(C[C@H]1c1ccc3c(Nc4ccc(C#N)nc4OC)n[nH]c3c1)C(=O)N2 [Example 260, 6-methoxy-5-({6-[(1R,2S)-5′-methoxy-2′-oxo-1′,2′-dihydrospiro[cyclopropane-1,3′-indol]-2-yl]-1H-indazol-3-yl}amino)pyridine-2-carbonitrile]
4 | 2162.7118 | 0.59 | 230 | CCOc1cc(S(=O)(=O)NC)cnc1Nc1n[nH]c2cc([C@@H]3C[C@@]34C(=O)Nc3ccc(OC)cc34)ccc12 [Example 275, 5-ethoxy-6-({6-[(1R,2S)-5′-methoxy-2′-oxo-1′,2′-dihydrospiro[cyclopropane-1,3′-indol]-2-yl]-1H-indazol-3-yl}amino)-N-methylpyridine-3-sulfonamide]
5 | 1120.5641 | 2.2 | 1049.1355 | CCOc1cc(=O)n(C)nc1Nc1n[nH]c2cc([C@@H]3C[C@@]34C(=O)Nc3ccc(OC)cc34)ccc12 [Example 277, (1R,2S)-2-{3-[(4-ethoxy-1-methyl-6-oxo-1,6-dihydropyridazin-3-yl)amino]-1H-indazol-6-yl}-5′-methoxyspiro[cyclopropane-1,3′-indol]-2′(1′H)-one]
6 | 1269.9004 | 0.804 | 423.6318 | COc1ccc2c(c1)[C@]1(C[C@H]1c1ccc3c(Nc4nc(C(C)(C)O)ccc4OC)n[nH]c3c1)C(=O)N2 [Example 278, (1R,2S)-2-(3-{[6-(2-hydroxypropan-2-yl)-3-methoxypyridin-2-yl]amino}-1H-indazol-6-yl)-5′-methoxy-1′H-spiro[cyclopropane-1,3′-indol]-2′-one]

The remaining lines, values behind:

Row | Compound | [Aurora A IC50 (nM)]/[PLK4 IC50 (nM)] [1] | IC50 (human recombinant PLK4) [nM] | [Aurora B IC50 (nM)]/[PLK4 IC50 (nM)] [2]
7 | COc1ccc2c(c1)[C@]1(C[C@H]1c1ccc3c(Nc4nc(C)ncc4SC)n[nH]c3c1)C(=O)N2 [Example 162, (1R,2S)-5′-methoxy-2-(3-{[2-methyl-5-(methylsulfanyl)pyrimidin-4-yl]amino}-1H-indazol-6-yl)spiro[cyclopropane-1,3′-indol]-2′(1′H)-one] | 648.6776 | 8.39 | 105.2895
8 | COc1ccc2c(c1)[C@]1(C[C@H]1c1ccc3c(Nc4cc(C(=O)N(C)C)cnc4OC)n[nH]c3c1)C(=O)N2 [Example 181, 6-methoxy-5-({6-[(1R,2S)-5′-methoxy-2′-oxo-1′,2′-dihydrospiro[cyclopropane-1,3′-indol]-2-yl]-1H-indazol-3-yl}amino)-N,N-dimethylpyridine-3-carboxamide] | 2415.5227 | 7.58 | 3693.2418
9 | COc1ccc2c(c1)[C@]1(C[C@H]1c1ccc3c(Nc4nc(N(C)C)ncc4C)n[nH]c3c1)C(=O)N2 [Example 182, (1R,2S)-2-(3-{[2-(dimethylamino)-5-methylpyrimidin-4-yl]amino}-1H-indazol-6-yl)-5′-methoxyspiro[cyclopropane-1,3′-indol]-2′(1′H)-one] | 53.6821 | 4.45 | 198.8774
10 | COc1ccc2c(c1)[C@]1(C[C@H]1c1ccc3c(Nc4cc(F)c(C(=O)N(C)C)cc4OC)n[nH]c3c1)C(=O)N2 [Example 206, 2-fluoro-5-methoxy-4-({6-[(1R,2S)-5′-methoxy-2′-oxo-1’,2′-dihydrospiro[cyclopropane-1,3′-indol]-2-yl]-1H-indazol-3-yl}amino)-N,N-dimethylbenzamide] | 618.8586 | 0.806 | 80.2233
11 | COc1ccc2c(c1)[C@]1(C[C@H]1c1ccc3c(Nc4cc(F)c(C(=O)N5CCOCC5)cc4OC)n[nH]c3c1)C(=O)N2 [Example 207, (1R,2S)-2-{3-[5-fluoro-2-methoxy-4-(morpholine-4-carbonyl)anilino]-1H-indazol-6-yl}-5′-methoxyspiro[cyclopropane-1,3′-indol]-2′(1′H)-one] | 497.3739 | 0.952 | 111.6597
12 | COc1ccc2c(c1)[C@]1(C[C@H]1c1ccc3c(Nc4cc(N5CCCC5=O)cnc4OC)n[nH]c3c1)C(=O)N2 [Example 220, (1R,2S)-5′-methoxy-2-(3-{[2-methoxy-5-(2-oxopyrrolidin-1-yl)pyridin-3-yl]amino}-1H-indazol-6-yl)spiro[cyclopropane-1,3′-indol]-2′(1′H)-one] | 1042.4081 | 6.01 | 498.7527
13 | COc1ccc2c(c1)[C@]1(C[C@H]1c1ccc3c(Nc4ncc(P(C)(C)=O)nc4OC)n[nH]c3c1)C(=O)N2 [Example 229, (1R,2S)-2-(3-{[5-(dimethylphosphoryl)-3-methoxypyrazin-2-yl]amino}-1H-indazol-6-yl)-5′-methoxyspiro[cyclopropane-1,3′-indol]-2′(1′H)-one] | 1669.4278 | 7.85 | 130.8780
14 | COc1ccc2c(c1)[C@]1(C[C@H]1c1ccc3c(Nc4ncc(C(=O)N5CC(OC)C5)cc4OC)n[nH]c3c1)C(=O)N2 [Example 235, (1R,2S)-5′-methoxy-2-(3-{[3-methoxy-5-(3-methoxyazetidine-1-carbonyl)pyridm-2-yl]amino}-1H-indazol-6-yl)spiro[cyclopropane-1,3′-indol]-2′(1′H)-one] | 2053.4808 | 2.17 | 260.3503
15 | COc1ccc2c(c1)[C@]1(C[C@H]1c1ccc3c(Nc4ncc(C(=O)N(C)C)nc4OC)n[nH]c3c1)C(=O)N2 [Example 236, 6-methoxy-5-({6-[(1R,2S)-5′-methoxy-2′-oxo-1′,2′-dihydrospiro[cyclopropane-1,3′-indol]-2-yl]-1H-indazol-3-yl}amino)-N,N-dimethylpyrazine-2-carboxamide] | 949.6021 | 2.26 | 114.8983
16 | CCOc1nc(C(=O)N(C)C)cnc1Nc1n[nH]c2cc([C@@H]3C[C@@]34C(=O)Nc3ccc(OC)cc34)ccc12 [Example 237, 6-ethoxy-5-({6-[(1R,2S)-5′-methoxy-2′-oxo-1′,2′-dihydrospiro[cyclopropane-1,3′-indol]-2-yl]-1H-indazol-3-yl}amino)-N,N-dimethylpyrazine-2-carboxamide] | 3385.3211 | 2.94 | 369
17 | COc1ccc2c(c1)[C@]1(C[C@H]1c1ccc3c(Nc4cnc(P(C)(C)=O)cc4OC)n[nH]c3c1)C(=O)N2 [Example 249, (1R,2S)-2-(3-{[6-(dimethylphosphoryl)-4-methoxypyridin-3-yl]amino}-1H-indazol-6-yl)-5′-methoxyspiro[cyclopropane-1,3′-indol]-2′(1′H)-one] | 2585.7077 | 6.56 | 451.7751
18 | COc1ccc2c(c1)[C@]1(C[C@H]1c1ccc3c(Nc4cc5oc(C)nc5cc4Cl)n[nH]c3c1)C(=O)N2 [Example 252, (1R,2S)-2-{3-[(5-chloro-2-methyl-1,3-benzoxazol-6-yl)amino]-1H-indazol-6-yl}-5′-methoxyspiro[cyclopropane-1,3′-indol]-2′(1′H)-one] | 518.4227 | 9.28 | 365.8694
19 | CCP(=O)(CC)c1ccc(OC)c(Nc2n[nH]c3cc([C@@H]4C[C@@]45C(=O)Nc4ccc(OC)cc45)ccc23)c1 [Example 261, (1R,2S)-2-{3-[5-(diethylphosphoryl)-2-methoxyanilino]-1H-indazol-6-yl}-5′-methoxyspiro[cyclopropane-1,3′-indol]-2′(1′H)-one] | 5824.2730 | 7.91 | 2807.8381
20 | CCOc1cc(S(C)(=O)=O)ncc1Nc1n[nH]c2cc([C@@H]3C[C@@]34C(=O)Nc3ccc(OC)cc34)ccc12 [Example 279, (1R,2S)-2-{3-[(4-ethogy-6-methanesulfonylpyridin-3-yl)amino]-1H-indazol-6-yl}-5′-methoxy-1′H-spiro[cyclopropane-1,3′-indol]-2′-one] | 37425.1497 | 1.34 | 2792.6646

Reference: US20230365537A1, “POLO LIKE KINASE 4 INHIBITORS” (ORIC Pharmaceuticals, Inc., priority 2021, published 2023)
